A short description of one data set: PAMPA permeability. The format is in vitro ADME.
The next data set relates to DCN1 and DCN2. In words: Pulse-chase isoform selectivity, NEDD8 transfer from UBE2M to CUL2. The note with it: pulse-chase assay against all five DCN family members. The data set is classed as biochemical, human.
Data set [1] has as its system cullin neddylation in HCC95 cells. In words: Western blot for inhibition of cellular cullin neddylation in HCC95 cells. The note with it: MLN4924 1 μM, single dose, 48 hours (Figure 7). The data set is classed as cell-based.
The test system of data set [2] is total cellular ubiquitination. The note with it: cited from earlier work.

The structures appear in SMILES notation.

Regarding `CCCN1CCC(N(Cc2ccccc2)C(=O)Nc2cccc(C(F)(F)F)c2)CC1` [Compound 42], in the data set “PAMPA permeability”, the Pampa is 1800 ± 1 ×10^−6 cm/s. Besides, the “Selectivity for inhibiting neddylation activity of DCN1 and DCN2 over DCN3-5” value in the data set with DCN1 and DCN2 was “selective and approximately equipotent inhibition”.
In the case of `NS(=O)(=O)OC[C@@H]1C[C@@H](n2ccc3c(N[C@H]4CCc5ccccc54)ncnc32)C[C@@H]1O` [Pevonedistat, reference compound], the “Inhibition of cullin neddylation in cells by positive control” value in data set [1] is “completely inhibits all cullin neddylation”. In addition, the “Reduction of total cellular ubiquitination” value in data set [2] was 10-20%.

The values above are taken from article PMC5898815 (Journal of medicinal chemistry, 2018).
